# Measurements published in the supplement of paper PMC10307832.
# Assays:
# Experiment in all cases: relative viability (nuclei count vs DMSO), 5 days (fraction); higher = more cells survive
# BAY61-3606 + Lapatinib = compound: COC1=C(C=C(C=C1)C2=CC3=NC=CN3C(=N2)NC4=C(C=CC=N4)C(=O)N)OC [BAY61-3606] + CS(=O)(=O)CCNCc1ccc(-c2ccc3ncnc(Nc4ccc(OCc5cccc(F)c5)c(Cl)c4)c3c2)o1 [Lapatinib] (partner 2 µM)
# Method in brief: (§1)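 A single step with final 0.05% Triton X-100, 1% formaldehyde and 1 ug/ml Hoechst fixed the cells and stained nuclei 5 days after treatment. Lung cancer cell lines in 1536-well plates had been treated by pin tool the day after seeding with one drug alone or a fixed anchor-drug dose plus five library-drug doses (not always all listed) in √10 steps, and nuclei were counted on 4× images. Relative viability is the ratio of nuclei in treated wells to nuclei in vehicle wells, taken as the median of duplicate plates.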
# BAY61-3606 + Olaparib = compound: COC1=C(C=C(C=C1)C2=CC3=NC=CN3C(=N2)NC4=C(C=CC=N4)C(=O)N)OC [BAY61-3606] + O=C(c1cc(Cc2n[nH]c(=O)c3ccccc23)ccc1F)N1CCN(C(=O)C2CC2)CC1 [Olaparib] (partner 8 µM)
# Method in brief: as §1
# Doxorubicin + Tozasertib = compound: COc1cccc2c1C(=O)c1c(O)c3c(c(O)c1C2=O)C[C@@](O)(C(=O)CO)C[C@@H]3O[C@H]1C[C@H](N)[C@H](O)[C@H](C)O1 [Doxorubicin] + Cc1cc(Nc2cc(N3CCN(C)CC3)nc(Sc3ccc(NC(=O)C4CC4)cc3)n2)n[nH]1 [Tozasertib] (partner 0.1 µM)
# Method in brief: as §1
# Doxorubicin + Decitabine = compound: COc1cccc2c1C(=O)c1c(O)c3c(c(O)c1C2=O)C[C@@](O)(C(=O)CO)C[C@@H]3O[C@H]1C[C@H](N)[C@H](O)[C@H](C)O1 [Doxorubicin] + Nc1ncn([C@H]2C[C@H](O)[C@@H](CO)O2)c(=O)n1 [Decitabine] (partner 2 µM)
# Method in brief: as §1
Cell Line,relative viability (BAY61-3606 + Lapatinib; first compound 0.02 µM),relative viability (BAY61-3606 + Lapatinib; first compound 0.06325 µM),relative viability (BAY61-3606 + Lapatinib; first compound 0.2 µM),relative viability (BAY61-3606 + Lapatinib; first compound 0.6325 µM),relative viability (BAY61-3606 + Lapatinib; first compound 2 µM),relative viability (BAY61-3606 + Olaparib; first compound 0.02 µM),relative viability (BAY61-3606 + Olaparib; first compound 0.06325 µM),relative viability (BAY61-3606 + Olaparib; first compound 0.2 µM),relative viability (BAY61-3606 + Olaparib; first compound 0.6325 µM),relative viability (BAY61-3606 + Olaparib; first compound 2 µM),relative viability (Doxorubicin + Tozasertib; first compound 0.001 µM),relative viability (Doxorubicin + Tozasertib; first compound 0.003162 µM),relative viability (Doxorubicin + Tozasertib; first compound 0.01 µM),relative viability (Doxorubicin + Tozasertib; first compound 0.03162 µM),relative viability (Doxorubicin + Tozasertib; first compound 0.1 µM),relative viability (Doxorubicin + Decitabine; first compound 0.003162 µM),relative viability (Doxorubicin + Decitabine; first compound 0.01 µM),relative viability (Doxorubicin + Decitabine; first compound 0.03162 µM),relative viability (Doxorubicin + Decitabine; first compound 0.1 µM),relative viability (Doxorubicin + Decitabine; first compound 0.001 µM)
LOU-NH91,0.765,0.681,0.827,0.735,0.669,0.944,0.922,0.903,0.944,0.728,0.638,0.644,0.71,0.638,0.615,0.816,0.837,0.758,0.693,
LU99A,0.97,1.02,0.909,0.976,0.486,0.261,0.253,0.241,0.246,0.243,0.298,0.28,0.287,0.281,0.309,1.07,0.951,0.972,0.945,0.954
LXF-289,0.886,0.945,0.95,0.934,0.992,1.05,1.1,0.96,1.04,0.963,0.205,0.192,0.192,0.221,0.2,0.413,0.395,0.317,0.392,0.41
NCI-H23,1.16,1.39,1.11,0.985,0.95,0.327,0.304,0.289,0.305,0.288,,0.452,0.362,0.389,0.397,0.304,0.335,0.284,0.365,0.335
NCI-H322M,0.622,0.612,0.596,0.599,0.553,0.779,0.822,0.75,0.749,0.724,0.518,0.506,0.518,0.437,0.383,0.58,0.735,0.688,0.553,0.757
NCI-H358,0.435,0.378,0.477,0.378,0.288,0.654,0.601,0.751,0.573,0.449,0.107,0.0976,0.0897,0.1,0.0933,0.17,0.154,0.12,0.0966,0.206
NCI-H460,1.05,1.19,0.938,1.01,0.189,0.501,0.464,0.393,0.444,0.457,0.419,0.388,0.264,0.185,0.165,0.375,0.282,0.0686,0.0323,0.445
NCI-H520,0.9,1.05,0.901,0.959,0.729,0.359,0.325,0.383,0.391,0.274,0.409,0.432,0.434,0.343,0.413,0.471,0.416,0.328,0.47,0.53
NCI-H596,1.09,1.02,1.14,1.21,1.04,0.74,0.75,0.722,0.925,0.544,0.857,1.08,0.943,0.806,0.859,1.09,1,0.86,1.08,1.97
NCI-H647,1.13,1.25,1.12,1.11,0.86,0.729,0.743,0.574,0.432,0.237,0.305,0.181,0.431,0.18,0.125,0.387,0.342,0.206,0.183,0.39
NCI-H650,1.16,0.948,0.783,0.884,0.801,0.365,0.371,0.382,0.395,0.32,0.908,0.736,0.784,0.582,0.63,0.336,0.283,0.265,0.304,0.287
NCI-H661,0.575,0.534,0.415,0.541,0.371,0.737,0.75,0.679,0.762,0.691,0.37,0.354,0.349,0.339,0.388,0.568,0.506,0.426,0.337,0.561
NCI-H727,0.701,0.742,0.82,0.983,0.753,0.586,0.643,0.752,0.68,0.627,0.697,0.513,0.697,0.636,0.661,0.909,,0.89,0.909,0.913
NCI-H838,1.17,0.875,0.971,0.951,0.621,0.802,0.847,0.751,0.729,0.571,0.281,0.306,0.261,0.274,0.226,0.47,0.385,0.328,0.292,0.485
NCI-H1355,1.07,0.907,0.926,0.948,0.764,0.778,0.713,0.708,0.762,0.641,0.632,0.508,0.52,0.443,0.598,0.424,0.383,0.382,0.349,0.379
NCI-H1395,1.13,1.08,1.34,0.98,0.973,0.485,0.426,0.467,0.492,0.438,0.791,0.724,0.89,0.65,0.799,0.666,0.634,0.614,0.651,0.724

Cell Line,relative viability (BAY61-3606 + Lapatinib; first compound 0.02 µM),relative viability (BAY61-3606 + Lapatinib; first compound 0.06325 µM),relative viability (BAY61-3606 + Lapatinib; first compound 0.2 µM),relative viability (BAY61-3606 + Lapatinib; first compound 0.6325 µM),relative viability (BAY61-3606 + Lapatinib; first compound 2 µM),relative viability (BAY61-3606 + Olaparib; first compound 0.02 µM),relative viability (BAY61-3606 + Olaparib; first compound 0.06325 µM),relative viability (BAY61-3606 + Olaparib; first compound 0.2 µM),relative viability (BAY61-3606 + Olaparib; first compound 0.6325 µM),relative viability (BAY61-3606 + Olaparib; first compound 2 µM),relative viability (Doxorubicin + Tozasertib; first compound 0.001 µM),relative viability (Doxorubicin + Tozasertib; first compound 0.003162 µM),relative viability (Doxorubicin + Tozasertib; first compound 0.01 µM),relative viability (Doxorubicin + Tozasertib; first compound 0.03162 µM),relative viability (Doxorubicin + Tozasertib; first compound 0.1 µM),relative viability (Doxorubicin + Decitabine; first compound 0.003162 µM),relative viability (Doxorubicin + Decitabine; first compound 0.01 µM),relative viability (Doxorubicin + Decitabine; first compound 0.03162 µM),relative viability (Doxorubicin + Decitabine; first compound 0.1 µM),relative viability (Doxorubicin + Decitabine; first compound 0.001 µM)
NCI-H1437,0.892,0.915,0.729,0.905,0.683,0.634,0.687,0.607,0.621,0.555,0.411,0.414,0.405,0.379,0.283,0.616,0.501,0.417,0.361,0.538
NCI-H1650,0.862,0.671,0.8,0.849,0.517,0.86,0.924,0.768,0.806,0.674,0.411,0.32,0.261,0.207,0.111,0.314,0.361,0.245,0.135,0.396
NCI-H1651,0.979,0.863,0.768,0.826,0.801,0.195,0.198,0.184,0.182,0.145,0.643,0.793,0.648,0.319,0.157,0.63,0.638,0.506,0.571,0.534
NCI-H1666,0.668,,0.523,0.649,0.445,0.767,0.827,0.748,0.754,0.724,0.62,0.547,0.47,0.385,0.343,0.759,0.662,0.692,0.697,0.671
NCI-H1734,0.991,1.07,1,1.14,0.758,0.604,0.555,0.561,0.541,0.378,0.48,0.275,0.292,0.238,0.249,0.494,0.478,0.462,0.513,0.491
NCI-H1755,1.08,1.01,0.994,1.12,0.95,0.908,0.883,0.852,0.911,0.789,0.605,0.556,0.576,0.552,0.598,0.763,0.736,0.714,0.743,0.774
NCI-H1793,0.479,0.775,0.823,0.948,0.796,0.988,0.814,1,1.03,0.718,,0.403,0.348,0.286,0.358,0.482,0.501,0.403,0.456,
NCI-H1915,1.02,1.02,0.925,0.878,0.919,0.253,0.236,0.254,0.247,0.181,0.481,0.439,0.452,0.41,0.437,0.263,0.283,0.259,0.271,0.265
NCI-H1944,0.851,0.88,0.796,0.776,0.587,0.439,0.38,0.397,0.434,0.258,0.24,0.267,0.231,0.235,0.239,0.506,0.403,0.372,0.439,0.441
NCI-H1975,0.996,0.881,0.963,0.925,0.595,0.858,0.798,0.733,0.707,0.516,0.745,0.711,0.664,0.303,0.178,0.393,0.392,0.317,0.322,0.391
NCI-H1993,0.733,0.846,0.808,0.776,0.746,1.11,1.04,0.984,1.13,0.82,0.593,0.657,0.555,0.58,0.591,0.582,0.546,0.551,0.549,0.625
NCI-H2009,1,0.971,0.937,0.962,0.861,0.714,0.639,0.864,0.713,0.592,0.748,0.745,0.678,0.524,0.284,0.384,0.333,0.263,0.274,0.445
NCI-H2023,0.917,0.805,0.869,1.45,0.591,0.515,0.623,0.481,0.496,0.257,0.351,0.378,0.294,0.157,0.0799,0.219,0.171,0.0903,0.0802,0.209
NCI-H2085,0.865,0.784,0.777,0.977,0.71,0.863,0.868,0.726,0.843,0.698,0.815,0.829,0.919,0.796,0.829,0.5,0.522,0.521,0.553,0.536
NCI-H2087,0.747,1.08,0.994,1.11,1,0.547,0.682,0.489,0.54,0.448,,0.278,0.248,0.165,0.156,0.264,0.239,0.242,0.173,0.291
